Reference: patent US20220257741A1, “COMBINATION THERAPY FOR CANCER” (IO Biotech ApS, priority 2016, published 2022)
Several values for one entry are separate records, joined by “and”; a condition that tells them apart may be missing. Equal values may be shown once. Entries after “also recorded” stand apart in the source; their conditions may differ.

Tests used:
THP-1 cells = experiment: 51Cr-release assay, PBMC killing of THP-1 (Example 4); format: cell-based; conditions: peptide 0.1 μM, day 17, range of E/T ratios
Experimental: Buffycoats were thawed (day 0), washed twice, resuspended in medium, counted and plated into wells as set out in Table Z4. THP-1 cells were irradiated with 30 GY and washed twice in medium. THP-1 cells were counted and added to PBMC containing wells as set out in Table Z4 (total volume 2 ml). Plates were placed in an incubator at 37 degrees. On days 7 and 14, 1 ml supernatant/well was removed. Cells were harvested and analyzed for cytotoxic activity on day 17. A standard ^51Cr-release assay was used to measure the cytotoxic potential of the peptide treated PBMCs. ^51Cr labeled THP-1 cells were used as target cells and peptide treated PBMCs as effector cells. Triton-X treated wells was used as maximum measurable lysis and medium alone as minimum lysis.
% Specific lysis=((cpmsample−cpmminimum)/(cpmmaximum−cpmminimum))×100%

[1] = Phase I clinical trial, adverse events graded by CTCAE v. 4.0; format: in vivo, human
From the text: Patients were enrolled in a First-in-Human phase I clinical trial at the Department of Oncology at Herlev Hospital, University of Copenhagen (Herlev, Denmark) from March 2014 to August 2014. The study was originally designed as a two-armed phase I study, combining IDO1-derived peptide vaccination with standard-of-care treatment with either Ipilimumab or Vemurafenib. Only data from patients treated with Ipilimumab in combination with vaccine is reported. […]
Primary end-point was toxicity. In addition, immune-response against the vaccine peptide and the clinical benefit of treatment were assessed. […]
Safety of the study treatment was assessed in terms of occurrence of adverse events, graded according to Common Terminology Criteria for Adverse Events (CTCAE) version 4.0. Anti-tumour activity was evaluated with positron emission tomography-computed tomography (PET-CT) scans obtained at baseline (up to 28 days before treatment initiation) after 12 weeks and every 8-12 weeks thereafter until progression. CT scans were evaluated according to Response Evaluation Criteria In Solid Tumors (RECIST) version 1.1. […]

PBMC = experiment: Direct IFN-γ ELISpot of patient PBMC stimulated with IO102 peptide; format: cell-based, human; conditions: patients treated with Ipilimumab without IDO-vaccine, before and after three series
[2] = tested on: Tregs and MDSC in peripheral blood; experiment: Flow cytometry of regulatory cells in peripheral blood of patients; format: in vivo, human; conditions: patients treated with Ipilimumab without the vaccine (data not shown)
Experimental: PBMC samples was thawed in 37° C. RPMI 1640 medium (Lonza) supplemented with 2.5 ml DNAse containing Pulmozyme (Roche) and 0.26 mmol MgCl (Herlev Hospital Pharmacy) per 100 ml buffer. All stainings were done in phosphate buffered saline (PBS)(Lonza) containing 0.5% bovine serum albumin (Sigma-Aldrich). The following antibodies were used: FoxP3-PE, HLA-DR-HV500, CD3-PE-Cy7, CD19-PE-Cy7, CD56-PE-Cy7, CD4-HV500, CD11b-APC, CD3-APC (purchased from BD Bioscience), CD33-FITC, CD124-PE (purchased from BD Pharmigen), HELIOS-PerCP-Cy5.5, CD14-BV421, CD25-BV421 (all purchased from Biolegend), CD127-FITC, CD39-PE-Cy7 (purchased from eBioscience). Additionally, all samples were stained with the LIVE/DEADR Fixable Near-IR Dead Cell Stain Kit (life technologies). For intracellular staining of transcription factors, we used the Foxp3/Transcription Factor Staining Buffer Set (eBioscience) according to the manufacturors instructions. Cells were acquired on a FACSCanto II using FACSDiva Software version 6.1.3 (BD Biosciences). Analysis of flow data was done using FlowJo software version 10 OSX (TreeStar, Inc., Ashland, Oreg.). Data-analysis was done after filtering of dead cells and doublets/triplets.
Tregs were defined as CD3+CD4+CD25highCD127-FOXP3+.
MDSC were defined as PBMC negative for lineage-markers CD3, CD19 and CD56 and additionally HLADR-/lowCD14+CD11b+CD33+CD124−.

metastatic melanoma = conditions: phase III; cited from earlier work
TC-1 tumour = TC-1 tumour model, peptide vaccination (Examples 7 and 8); format: in vivo, C57BL/6 mice
Experimental: C57BL/6 mice harbouring TC-1 tumour were treated with TC-1 specific E7-peptide ([…]; SEQ ID NO: 35) or IDO-Pep1 ([…]; SEQ ID NO: 33) and the efficacy of the peptide vaccines was assessed by tumour burden and survival. The mouse IDO peptide sequence (IDO-Pep1) was selected to provide a murine analog for the human IDO peptides tested in the earlier Examples, because the sequence of murine IDO1 differs to that of human IDO1.
4-6 week-old C57BL/6 mice were injected with 70,000 cell/ mouse of TC-1 cells. Treatment in respective groups was started when tumour reached an average size of approximately 0.075 cm3 (approx. 10 days after tumour inoculation). Peptides used for vaccination included TC1-specific E7-peptide ([…]; SEQ ID NO: 35) and IDO-Pep1 ([…]; SEQ ID NO: 33). The mouse IDO peptide was designed based on MHC class I and II binding algorithm. […] Mice were vaccinated two-three times with one-week interval, and the efficacy of the peptide vaccines was assessed by measuring tumour volume and/or overall survival.
C57BL/6 mice harbouring TC-1 tumour were treated with TC-1 specific E7-peptide ([…]; SEQ ID NO: 35), or IDO-Pep1 ([…]; SEQ ID NO: 33), or a combination of both E7 and IDO-Pep1. The efficacy of the vaccines was assessed by overall survival. […]

CILDSKLEVEALAQLLTFALK [IDO scrambled]
Allogenic killing (lysis) of THP-1 cells by PBMCs (THP-1 cells): induced less lysis of THP-1 cells

Ipilimumab
Toxicity, Ipilimumab ([1]; adverse reactions by CTCAE v. 4.0, one table line per patient (01i-13i), attributed by treating physician, Ipilimumab 3 mg/kg plus IO102 vaccine): Grade II choroiditis and None (3×) and Pruritus grade I, Grade I and diarrhoea, and Grade II rash, grade II and diarrhoea (2×) and Grade II rash and Grade II rosacea, grade III and Grade II pruritus and Grade I nausea | Adverse reactions most likely related to Ipilimumab treatment ([1]; individual patients, CTCAE grade): Two patients experienced grade II diarrhoea; also recorded: grade III diarrhoea; also recorded: two patients experienced grade II maculopapular rash; also recorded: flare in their pre-existing rosacea; also recorded: grade II choroiditis | Induction of IDO-specific cells (IO102 reactivity, ELISpot) (PBMC): no induction of IDO-specific cells | Level of MDSC in peripheral blood [2]: no change in MDSC | Level of Tregs in peripheral blood [2]: Reduced levels of Tregs | Clinical benefit rate (metastatic melanoma): ~30% | Overall response rate (metastatic melanoma): 10.9%

MTYENMDIL (listed as Mus musculus) [IDO-Pep1]
Anti-tumour effect (tumour volume and survival) (TC-1 tumour; 100 μg/mouse s.c. with PADRE and QuilA, therapeutic): anti-tumour protective effect; also recorded: greater protection than when vaccinated with tumour-specific peptide antigen, E7 peptide

RAHYNIVTF (Fragment of the E7 oncoprotein of HPV) [E7 peptide]
Protection (overall survival) (TC-1 tumour; 100 μg/mouse of each peptide s.c. with PADRE and QuilA): has therapeutic efficacy
